In ChEMBL document CHEMBL1153121, “2-Arylbenzoxazoles as CETP inhibitors: Substitution of the benzoxazole moiety” (Bioorg Med Chem Lett, 2010):

molecular target: Cholesteryl ester transfer protein (Homo sapiens) (UniProt P11597); assay: inhibition of human CETP assessed as cholesteryl ester transfer by fluorescence transfer assay relative to control; set-up: concentration or dose not given beside the values; conditions: concentration not given here
Sequence (P11597 whole entry, looked up): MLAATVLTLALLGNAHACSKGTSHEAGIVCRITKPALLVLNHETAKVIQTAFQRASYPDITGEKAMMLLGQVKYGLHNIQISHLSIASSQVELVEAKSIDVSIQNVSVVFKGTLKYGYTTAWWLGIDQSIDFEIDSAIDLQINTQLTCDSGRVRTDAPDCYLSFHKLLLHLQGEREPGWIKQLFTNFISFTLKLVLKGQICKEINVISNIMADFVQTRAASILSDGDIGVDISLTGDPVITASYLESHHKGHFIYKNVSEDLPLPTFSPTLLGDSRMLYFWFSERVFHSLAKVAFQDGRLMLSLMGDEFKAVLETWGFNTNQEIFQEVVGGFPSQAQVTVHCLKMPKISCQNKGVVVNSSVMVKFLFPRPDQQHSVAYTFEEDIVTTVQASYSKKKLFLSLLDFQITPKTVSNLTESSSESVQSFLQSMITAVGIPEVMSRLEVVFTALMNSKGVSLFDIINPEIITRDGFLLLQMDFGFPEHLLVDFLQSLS

inhibition	Compound
71%	Cc1ccccc1OCC(=O)Nc1ccc(-c2nc3cccc(Cl)c3o2)cc1
50%	Cc1ccccc1OCC(=O)Nc1ccc(-c2nc3ccc(F)cc3o2)cc1
36%	Cc1ccccc1OCC(=O)Nc1ccc(-c2nc3cccc(F)c3o2)cc1
89%	Cc1ccc2oc(-c3ccc(NC(=O)COc4ccccc4C)cc3)nc2c1
34%	Cc1ccc2nc(-c3ccc(NC(=O)COc4ccccc4C)cc3)oc2c1

The remaining lines, values behind:

Compound	inhibition
Cc1ccccc1OCC(=O)Nc1ccc(-c2nc3c([N+](=O)[O-])cccc3o2)cc1	42%
Cc1ccccc1OCC(=O)Nc1ccc(-c2nc3ccc([N+](=O)[O-])cc3o2)cc1	71%
Cc1ccccc1OCC(=O)Nc1ccc(-c2nc3cc([N+](=O)[O-])ccc3o2)cc1	79%
